In patent publication US7884067B2, “Peptides derived from cadherin and methods of use thereof” (Mount Sinai School of Medicine of New York University, priority 2001, dated 2011):

Key:
[1] = system: E-cadherin/catenin cytoskeletal complex; experiment: Ionomycin-induced CAJ disassembly in A431 cells, subcellular fractionation and Western blot; format: cell-based, human; conditions: 30 minutes preincubation with L-685,458, then ionomycin
Description: Subcellular fractionation. Confluent A431 cells (one 100 mm dish) were rinsed and scraped with 4° C. phosphate-buffered saline (PBS). Cells were then placed into 1 ml of buffer A (20 mM Tris-HCl [pH 7.5], 0.25 M sucrose, 10 mM EGTA, 2 mM EDTA, 1× Complete protease inhibitor cocktail, Roche), passed through a 27 gauge needle 10 times, and the obtained cell lysate was centrifuged at 500×g for 10 min at 4° C. The supernatant was then centrifuged at 120,000×g for 45 min at 4° C. to separate the cytosolic and crude membrane fractions. The pellet (crude membrane fraction) was washed twice with buffer A and resuspended by sonication in […] of buffer A containing 1% Triton X-100. The suspension was incubated at 4° C. for 30 min and then centrifuged at 120,000×g for 45 min at 4° C. to separate the membrane and Triton X-100-insoluble fractions. The pellet (Triton X-100-insoluble fraction) was washed twice with buffer A and solubilized by sonication in RIPA buffer. […] of proteins from the different fraction were analyzed by SDS-PAGE.
In stable cell-cell adhesion, the E-cadherin/β-catenin complex of the CAJ is anchored to the actin cytoskeleton via catenin and this association is manifested by the insolubility of the complex components in Triton X-100 (Baki et al., (2001)). Induction of apoptosis or calcium influx disrupts cadherin-mediated cell-cell adhesion by cleaving cadherin and disassembling the CAJ complexes. To determine whether the γ-secretase cleavage of E-cadherin is involved in the CAJ disassembly, calcium influx was induced with ionomycin (10 μM) in A431 cells preincubated for 30 minutes in the absence or presence of the γ-secretase inhibitor L-685,458. Cell extracts were fractionated, and analyzed on Western blots with antibodies against cytoplasmic E-cadherin C36 or β- and α-catenins. […] In addition, L-685,458 delayed the ionomycin-induced decrease of cytoskeletal β-catenin and α-catenin and inhibited their release to the soluble cytosol.

E-cadherin [2] = experiment: E-cadherin cleavage in staurosporine-treated (apoptotic) A431 cells (Western blot); format: cell-based, human
Description: Cell Cultures and transfections. Cells were grown in Dulbecco's Modified Eagle Medium (DMEM) plus 10% fetal bovine serum, penicillin and streptomycin in 5% CO2 at 37° C. […] A431 cells were from American Type Culture Collection. […] A431D cells stably transfected with wild-type or GGG759-761AAA mutant E-cadherin were provided by Dr. A. B. Reynolds.
Immunoprecipitations (IPs), immunoblotting, immunofluorescence and confocal microscopy. For WB analysis of cell extracts, cells were washed with PBS and then solubilized in RIPA buffer. For IPs cells were solubilized in Hepes buffer (25 mM Hepes [pH 7.4], 150 mM NaCl, 1× Complete protease inhibitor cocktail, Roche) containing 1% digitonin (IPs with I-R222 and PI-R222 antibodies) or 1% Triton X-100 (IPs with β-catenin and desmoglein antibodies). Following centrifugation at 17,000×g for 10 min, supernatants (1 mg protein) were pre-cleared with protein A- or protein G-agarose (Pierce) for 2 hours. Supernatants were then incubated with antibodies overnight at 4° C. and treated for 2 hours with protein A-agarose (polyclonal antibodies) or with protein G-agarose (monoclonal antibodies). IPs were washed with Hepes buffer containing either 1% digitonin or 1% Triton X-100 and analyzed by SDS-PAGE. Immunofluorescence and confocal microscopy was performed as described by Georgakopoulos et al., (1999). Briefly, cells were plated on 22×22 mm collagen-coated glass coverslips, fixed in cold methanol for 10 min at −20° C. Following washing in TBS (25 mM Tris-HCl [pH 7.4], 150 mM NaCl), cells were treated with 10% goat serum in SuperBlock (Pierce) for 1 hour, incubated overnight with primary antibody (1:100), washed in TBS and then were incubated with species specific Alexa Fluor™ secondary antibody conjugates (Molecular Probes). Cells were washed with TBS, mounted with Prolong antifade kit (Molecular Probes), and photographed on a Leica confocal laser scanning microscope.
Conditional media (20 μl) from A431 cells cultured in the absence or presence of […] and treated with SDS as above were probed on Western blots with anti-E-cadherin ectodomain antibody H108.

E-cadherin [3] = experiment: E-cadherin processing in E-cadherin-transfected PS1+/+ fibroblasts (Western blot, C36); format: cell-based, mouse; conditions: L-685,458 0.5 μM, 6 hours, compared to non-treated controls
Description: Cell Cultures and transfections. Cells were grown in Dulbecco's Modified Eagle Medium (DMEM) plus 10% fetal bovine serum, penicillin and streptomycin in 5% CO2 at 37° C. Fibroblast cell lines derived either from wild-type (WT) (PS1+/+) or PS1 knock-out (PS1−/−) mice were stably transfected with human E-cadherin as described by Baki et al., (2001). A431 cells were from American Type Culture Collection. Stable transfectants of PS1 cDNA in HEK293 cells were prepared as described by Georgakopoulos et al., (1999). A431D cells stably transfected with wild-type or GGG759-761AAA mutant E-cadherin were provided by Dr. A. B. Reynolds.
Immunoprecipitations (IPs), immunoblotting, immunofluorescence and confocal microscopy. For WB analysis of cell extracts, cells were washed with PBS and then solubilized in RIPA buffer. For IPs cells were solubilized in Hepes buffer (25 mM Hepes [pH 7.4], 150 mM NaCl, 1× Complete protease inhibitor cocktail, Roche) containing 1% digitonin (IPs with I-R222 and PI-R222 antibodies) or 1% Triton X-100 (IPs with β-catenin and desmoglein antibodies). Following centrifugation at 17,000×g for 10 min, supernatants (1 mg protein) were pre-cleared with protein A- or protein G-agarose (Pierce) for 2 hours. […] IPs were washed with Hepes buffer containing either 1% digitonin or 1% Triton X-100 and analyzed by SDS-PAGE. […]

## CC(C)C[C@H](NC(=O)[C@H](Cc1ccccc1)C[C@@H](O)[C@H](Cc1ccccc1)NC(=O)OC(C)(C)C)C(=O)N[C@@H](Cc1ccccc1)C(N)=O [L-685,458]
[1]
  ionomycin-induced decrease of cytoskeletal β-catenin and α-catenin: delayed
  ionomycin-induced degradation of the full length E-cadherin: partially inhibited
  ionomycin-induced metabolism of cytoskeletal E-Cad/CTF1: blocked
  production of soluble cytosolic E-Cad/CTF2: abolished
  release of β-catenin and α-catenin to the soluble cytosol: inhibited
E-cadherin [2]; 30 minutes preincubation with L-685,458 (0.5 μM), then STS 6 hours
  production of the 33 kDa cadherin fragment (E-Cad/CTF2): completely blocked
E-cadherin [2]; L-685,458 (0.5 μM), STS 6 hours
  E-Cad/CTF1 level on inhibition of E-Cad/CTF2: increase in E-Cad/CTF1
E-cadherin [3]
  cellular E-Cad/CTF1: increased cellular E-Cad/CTF1
